Results: US20250360091A1, “COMBINATION OF SGLT2 INHIBITOR AND MENTHOL AND USE THEREOF IN TREATMENT OF HEART DISEASE” (EAST CHINA UNIVERSITY OF SCIENCE AND TECHNOLOGY, priority 2023, published 2025)

Columns and labels:
[1] = system: TAC-induced heart failure model; test: Transverse aortic constriction (TAC)-induced heart failure model (Example 4); type: in vivo, C57/6J male mice
Procedure: The transverse aortic constriction (TAC) model is the most commonly used disease model of chronic ventricular hypertrophy, which is used to simulate hypertrophic cardiomyopathy, heart failure, and hypertensive heart disease caused by hypertension or increased intraventricular pressure.
Nine-week-old C57/6J male mice were divided into five groups (sham group, TAC group, 30 mg/kg cmpagliflozin group (E30), 10 mg/kg empagliflozin+15 mg/kg menthol group (E10+M15), and 30 mg/kg empagliflozin+45 mg/kg menthol group (E30+M45)).
Experimental process of aortic arch constriction surgery: hair was removed from the surgical area from the neck to the anterior chest of the experimental mouse, and the surgical area was disinfected with iodine. The neck and chest were opened in the midline, the muscles were bluntly separated, the incision was retracted with retractors, the thymus was dissected, and the aortic arch was exposed. The innominate artery, left common carotid artery, and left subclavian artery were found along the aortic arch. The thread was passed between the right innominate artery and the left common carotid artery, and the constriction needle was paced parallel to the aortic arch and then the thread was tied a knot. After tightening the thread, the constriction needle was slowly withdrawn, that is, quantitative constriction was formed in the aortic arch. The chest cavity was closed, the skin on the neck and chest was sutured and disinfected with iodine. Two weeks after the operation, after confirming the hypertrophy of the heart through cardiac function test, drug administration started, and continued for 4 weeks. The drug administration group was gavaged once a day in the morning, and the sham group and TAC group were gavaged with the same amount of drinking water every morning.
The survival of mice was recorded during the experiment. After 4 weeks of continuous administration, the exercise tolerance of experimental mice was evaluated by rotarod test, suspension test and grip strength test. The rotarod test evaluated the maximum tolerance time of mice at a speed of 35 rpm, the suspension test evaluated the maximum tolerance time of mice forearm suspension, and the grip strength test evaluated the maximum grip strength of mice forepaws. […] After the experiment, the mice were euthanized, the hearts were weighed, the heart-body weight ratio was calculated, and then the hearts were fixed, paraffin-embedded, sliced, and Masson-stained. ImageJ was used to quantify the fibrosis area and calculate the degree of cardiac fibrosis. Graph Pad software was used for data processing and significant differences were calculated (OneWayANOVA was used between multiple groups, and Student's t test was used between two groups).

[2] = system: ISO-induced heart failure model; test: Isoproterenol-induced heart failure model (Example 3); type: in vivo, C57/6J male mice; conditions: for cardiac function (ejection fraction, fractional shortening, echocardiography): gavage daily, day 15
Procedure: Isoproterenol hydrochloride is a commonly used inducer for establishing a heart failure model. Subcutaneous injection of isoproterenol hydrochloride can accelerate the heart rate of mice, cause the myocardium to continue to contract strongly, increase myocardial oxygen consumption, increase the heart load, and eventually cause heart failure.
Preferably, 50 µM of empagliflozin and 200 μM of menthol were converted into a mass ratio of about 1:1.5 according to the molar molecular weight. The dose of empagliflozin was set at 10 mg/kg and 30 mg/kg, and the pharmaceutical composition was set as the 10 mg/kg empagliflozin+15 mg/kg menthol group. In addition, in order to determine the extent to which the combination of menthol can reduce the effective dose of empagliflozin, a combination of menthol at a dose of 15 mg/kg and empagliflozin at a dose of 5 mg/kg was administered, resulting in the empagliflozin 5 mg/kg+menthol 15 mg/kg group.
Specifically, C57/6J male mice with an average body weight of about 21-22 g were divided into 7 groups (sham group, ISO group, empagliflozin 30 mg/kg group (E30), empagliflozin 10 mg/kg group (E10), menthol 15 mg/kg group (M15), empagliflozin 10 mg/kg+menthol 15 mg/kg group (E10+M15), empagliflozin 5 mg/kg+menthol 15 mg/kg group (E5+M15)), with 8 mice in each group. The mice were given drugs by gavage every morning, and the solvent was DMSO (the content was less than 5%, and menthol and empagliflozin solution were mixed in equal volumes and then gavaged into the mice). The sham group and ISO group were gavaged with an equal amount of drinking water every morning.
Isoproterenol hydrochloride was injected subcutaneously twice a day, in the morning and evening, with a dose of 40 mg/kg on days 1-2, 20 mg/kg on days 3-7, and 10 mg/kg on days 8-14. […]
On the 15th day, the Visual-Sonics Vevo 3100 small animal high-resolution micro-ultrasound imaging system was used to evaluate the cardiac structure and function of the experimental mice in each group. Three cardiac cycles were taken to measure the systolic interventricular septum thickness (IVSs), diastolic interventricular septum thickness (IVSd), left ventricular systolic inner diameter (LVIDs), left ventricular diastolic inner diameter (LVIDd), systolic left ventricular posterior wall thickness (LVPWs), and diastolic left ventricular posterior wall thickness (LVPWd), and the ejection fraction (EF, %) and fractional shortening (FS, %) were calculated. […] ImageJ was used to quantify the fibrosis area and calculate the degree of cardiac fibrosis. Graph Pad software was used for data processing and significant differences were calculated (OneWayANOVA was used between multiple groups, and Student's t test was used between two groups).

`OC[C@H]1O[C@@H](c2ccc(Cl)c(Cc3ccc(O[C@H]4CCOC4)cc3)c2)[C@H](O)[C@@H](O)[C@@H]1O` [empagliflozin] was tested, and the “myocardial hypertrophy (heart weight to body weight ratio)” value ([1]; EMPA 30 mg/kg, 4 weeks) was “significantly improves myocardial hypertrophy”, the “mouse deaths during the experiment (survival)” value ([1]; EMPA 30 mg/kg, gavage once daily for 4 weeks) was “one mouse died” and the “cardiac function (ejection fraction, fractional shortening, LV diameters)” value ([1]; empagliflozin 30 mg/kg, 4 weeks) was “significantly improves TAC-induced cardiac dysfunction”. The “exercise tolerance (grip strength, rotarod, forearm suspension)” value ([1]; empagliflozin alone 30 mg/kg, 4 weeks) was “cannot improve the exercise tolerance”, the “cardiac function (ejection fraction, fractional shortening, echocardiography)” value ([2]; empagliflozin 10 mg/kg) was “cannot significantly improve the cardiac function” and the “myocardial fibrosis (Masson staining area)” value ([2]; empagliflozin 30 mg/kg) was “significantly reduce myocardial fibrosis”. The “cardiac function (ejection fraction, fractional shortening, echocardiography)” value ([2]; empagliflozin 30 mg/kg) was “can effectively improve”.

For `CC(C)[C@@H]1CC[C@@H](C)C[C@H]1O` [menthol, L-menthol], the “cardiac function (ejection fraction, fractional shortening, echocardiography)” value ([2]; menthol 15 mg/kg) was “slightly improved the cardiac function of mice with heart failure at a dose of 15 mg/kg, but there is no significant difference”.
